What all share (type): binding
Experiment [1] addresses T1, recombinant lcFABP (Luciola cerata, UniProt G1FKW0). The experiment is described as follows: ANS fluorescence titration of recombinant lcFABP. As for the experimental part:
(§1) The binding property of lcFABP to fatty acids was analyzed by a fluorescence displacement assay using 1-anilinonaphthalene-8-sulfonic acid (ANS) as fluorescent probe. This assay utilizes ANS's property of emitting intense fluorescence when bind to the hydrophobic region of protein non-covalently. The displacement of ANS from ligand binding site of FABPs by fatty acid or other hydrophobic ligand will result in the reduction of fluorescence. In this way, the apparent inhibition constants (Ki) of fatty acid or hydrophobic ligand to FABPs can be measured, [25]-[27].
Recombinant lcFABP was overexpressed in E. coli cells, and purified by a two-step chromatography for ligand binding assay. […]
Fatty acid binding of recombinant lcFABP was assessed by a competitive displacement assay using fluorescence probe ANS as described previously, [27]. F7000 fluorescence spectrophotometer (Hitachi, Tokyo, Japan) was used for measuring the ANS fluorescence signal at the emission 470 nm following excitation at 375 nm. […] The apparent dissociation constant (Kd) of ANS-lcFABP complex was measured by nonlinear regression analysis of the binding data as described previously. To evaluated the binding of fatty acids to lcFABP, 2 µM lcFABP was pre-equilibrated with 40 µM ANS for 2 min in assay buffer, and then titrated with increasing concentrations of fatty acids until the reduction of fluorescence became saturate. […]

The target in experiment [2] is T1, recombinant lcFABP. The experiment is described as follows: fluorescence (ANS) displacement assay with fatty acids. As to conditions: for binding strength of lcFABP to ligand (in words): ANS displacement assay, recombinant lcFABP. Here is the method:
as §1
Recombinant lcFABP was overexpressed in E. coli cells, and purified by a two-step chromatography for ligand binding assay. […] After that, the binding of fatty acid to lcFABP was examined by a competitive displacement titration. […] Conversely, the lcFABP binds moderately to saturated dodecanoic acid (C12:0), monounsaturated oleic acid (C18:1) and polyunsaturated arachidonic acid (C20:4), and poorly to the saturated capric acid (C10:0). These binding studies confirmed that the recombinant lcFABP is a functional protein for fatty acids binding as other reported FABPs, [16].
Fatty acid binding of recombinant lcFABP was assessed by a competitive displacement assay using fluorescence probe ANS as described previously, [27]. F7000 fluorescence spectrophotometer (Hitachi, Tokyo, Japan) was used for measuring the ANS fluorescence signal at the emission 470 nm following excitation at 375 nm. All measurements were carried out in an assay buffer contained 50 mM sodium phosphate, pH 7.5, 140 mM KCl, 5 mM β-ME at 25°C under a dim light. ANS and various fatty acids were prepared freshly in absolute ethanol before used. To evaluate ANS-lcFABP interaction, 2 µM lcFABP in a final volume of 2 ml assay buffer was titrated with 1∼2 ul of ANS from a initial concentration of 0 µM to 80 µM. The apparent dissociation constant (Kd) of ANS-lcFABP complex was measured by nonlinear regression analysis of the binding data as described previously. To evaluated the binding of fatty acids to lcFABP, 2 µM lcFABP was pre-equilibrated with 40 µM ANS for 2 min in assay buffer, and then titrated with increasing concentrations of fatty acids until the reduction of fluorescence became saturate. The apparent inhibition constant (Ki) of each fatty acid to ANS-lcFABP complex was calculated from the displacement data as described previously. All binding experiments were repeated at least three times.

Experiment [3] addresses T1, recombinant lcFABP. The experiment can be described thus: time-dependent ANS displacement assay with D-luciferin and palmitic acid (Fig. S2). As for the experimental part:
In this study, we also investigated whether lcFABP could bind firefly luciferin using ANS displacement assay (Fig. S2).
Fluorescence change was recorded after successively adding lcFABP (until final concentration become 2 µM at 100 s), D-luciferin (Luc; 1 µM at 200 s and 2 µM at 300 s) or palmitic acid (PA; 1 µM at 200 s and 2 µM at 300 s), and the competitive palmitic acid (2 µM at 400 s) or D-luciferin (2 µM at 400 s) to into the ANS (40 µM) containing buffer using time-dependent model. The results have been subtracted of D-luciferin's intrinsic-fluorescence. All experiments are monitored under a detected wavelength of Ex: 370 nm and Em: 450 nm to reduce the interference of D-luciferin intrinsic-fluorescence to the assay. (TIF) Click here for additional data file.

Setting [4] is: apparent inhibition constant, 2 µM lcFABP pre-equilibrated with 40 µM ANS, pH 7.5, 25°C, at least three repeats, read-out: Ki.

The values below come from paper PMC3248459, “A Photocytes-Associated Fatty Acid-Binding Protein from the Light Organ of Adult Taiwanese Firefly, Luciola cerata” (PLoS ONE, 2011).

One may read the Kd as the constant that tells how readily two partners part at equilibrium.

Molecules are shown by their SMILES. Where two headings read alike, the source gives them in different places.

T1 sequence (G1FKW0 entry or part of it): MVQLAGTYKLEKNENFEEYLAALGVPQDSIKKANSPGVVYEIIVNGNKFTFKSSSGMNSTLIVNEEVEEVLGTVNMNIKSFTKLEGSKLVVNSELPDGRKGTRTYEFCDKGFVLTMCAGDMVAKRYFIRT

For `O=S(=O)(O)c1cccc2cccc(Nc3ccccc3)c12` [ANS, 1-anilinonaphthalene-8-sulfonic acid], at recombinant lcFABP [1], the dissociation constant (Kd) is 11200 ± 1500 nM.
Turning to `CCCCC/C=C\C/C=C\C/C=C\C/C=C\CCCC(=O)O` [Arachidonic acid], at recombinant lcFABP [2], the Ki is 1590 ± 160 nM and the “binding strength of lcFABP to ligand (in words)” value (“binding strength of lcFABP” for short) was “moderately”.
As for `CCCCCCCCCC(=O)O` [Capric acid], on recombinant lcFABP [2], the “binding strength of lcFABP” value is reported as “poorly”. In addition, the Ki at recombinant lcFABP [2] (setting [4]) was determined as 118000 ± 6240 nM.
`CCCCCCCCCCCC(=O)O` [Dodecanoic acid]: on recombinant lcFABP [2], the Ki is 1670 ± 150 nM and the “binding strength of lcFABP” value is listed as “moderately”.
For the compound `CCCCCCCCCCCCCC(=O)O` [Myristic acid], at recombinant lcFABP [2], the Ki was found to be 640 ± 140 nM and the “binding strength of lcFABP” value is “strongly”.
As for `CCCCCCCC/C=C\CCCCCCCC(=O)O` [Oleic acid], on recombinant lcFABP [2], the Ki turned out to be 1000 ± 170 nM and the “binding strength of lcFABP” value is on record as “moderately”.
In the case of `CCCCCCCCCCCCCCCC(=O)O` [Palmitic acid], at recombinant lcFABP [3] (2 µM lcFABP, 40 µM ANS, ligand added at 1-2 µM, luciferin intrinsic fluorescence subtracted, Ex 370 nm, Em 450 nm), the reduction of fluorescence is on record as no more than 40%. In addition, on recombinant lcFABP [2], the Ki came to 550 ± 120 nM and the “binding strength of lcFABP” value was “strongly”.
Regarding `CCCCCCCCCCCCCCCCCC(=O)O` [Steric acid], the “binding strength of lcFABP” value at recombinant lcFABP [2] is listed as “strongly”. In addition, the Ki at recombinant lcFABP [2] (setting [4]) came out at 250 ± 10 nM.
`O=C(O)[C@H]1CSC(c2nc3ccc(O)cc3s2)=N1` [luciferin, D-luciferin]: on recombinant lcFABP [3], the “interaction of lcFABP with ligand (in words)” value is on record as “weakly” and the reduction of fluorescence entry was “about 12%”.
